How the values were obtained:
barnyardgrass [1] = assay: Test B pre-/postemergence herbicide test; assay type: in vivo, Echinochloa crus-galli
Method in brief: (§1)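 Greenhouse pot assay with simultaneous preemergence (treated seed) and postemergence (2–18 cm seedlings) applications of surfactant-containing, non-phytotoxic solvent formulations. Response scored visually 13–15 days later on a 0–100 scale, 100 meaning complete control.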

ducksalad = assay: Test B flooded paddy test; assay type: in vivo, Heteranthera limosa; details: scale 0 to 100 (0 no effect, 100 complete control)
Method in brief: (§2)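 Greenhouse test; postemergence application to plants at 1–4 leaves (2–18 cm); paddy species at 2 leaves; evaluated visually vs controls at 13–15 days; scale 0–100 (100 = complete control).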

wild oat = assay: Test B postemergence herbicide test; assay type: in vivo, Avena fatua
Method in brief: (§3)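 Read-out: visual comparison with controls, scored 0 to 100, where 100 means complete control and 0 no effect. Formulated chemicals were applied postemergence to plants 2–18 cm tall (1- to 4-leaf), or to flooded-paddy plants at the 2-leaf stage, then held 13 to 15 days under glass.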

rice = assay: Test B flooded paddy test; assay type: in vivo, Oryza sativa; details: scale 0 to 100 (0 no effect, 100 complete control)
Method in brief: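 Each value is a visual 0–100 response rating taken against controls 13 to 15 days after treatment in the greenhouse. Plants received formulated chemical postemergence at the 1- to 4-leaf stage or, in flooded paddy, at the 2-leaf stage.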

[2] = tested on: small flower umbrella sedge; assay: Test B flooded paddy test; assay type: in vivo, Cyperus difformis; details: scale 0 to 100 (0 no effect, 100 complete control)
Method in brief: as §2

redroot pigweed = assay: Test A pre-/postemergence herbicide test; assay type: in vivo, Amaranthus retroflexus
Method in brief: (§4)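 Seeds sown in sandy loam received a preemergence directed soil spray of compound in non-phytotoxic solvent with surfactant; postemergence plants (2–10 cm, one- to two-leaf stage) were sprayed to runoff at the same time. After ~10 days in greenhouse, injury was rated visually versus untreated controls (0 = no effect, 100 = complete control).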

corn = assay: Test B pre-/postemergence herbicide test; assay type: in vivo, Zea mays
Method in brief: (§5)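 Evaluation is visual, comparing treated with control plants on a scale where 0 means no effect and 100 means full control. Treatments were preemergence, or postemergence on seedlings 2–18 cm tall, and held 13–15 days in the greenhouse.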

pigweed = assay: Test B pre-/postemergence herbicide test; assay type: in vivo, Amaranthus retroflexus
Method in brief: as §5

lambsquarters = assay: Test B pre-/postemergence herbicide test; assay type: in vivo, Chenopodium album
Method in brief: as §5

giant foxtail [3] = assay: Test B pre-/postemergence herbicide test; assay type: in vivo, Setaria faberi
Method in brief: as §5

morningglory [4] = assay: Test A pre-/postemergence herbicide test; assay type: in vivo, Ipomoea spp.
Method in brief: as §4

large crabgrass [5] = assay: Test B pre-/postemergence herbicide test; assay type: in vivo, Digitaria sanguinalis
Method in brief: as §5

velvetleaf [6] = assay: Test A pre-/postemergence herbicide test; assay type: in vivo, Abutilon theophrasti
Method in brief: as §4

cocklebur = assay: Test B pre-/postemergence herbicide test; assay type: in vivo, Xanthium strumarium
Method in brief: as §1

wheat = assay: Test B postemergence herbicide test; assay type: in vivo, Triticum aestivum; set-up: key to Wheat plant response rating: 0 = no effect, 100 = complete control
Method in brief: as §3

Surinam grass = assay: Test B pre-/postemergence herbicide test; assay type: in vivo, Urochloa decumbens
Method in brief: as §5

barnyardgrass [7] = assay: Test B flooded paddy test; assay type: in vivo, Echinochloa crus-galli; details: scale 0 to 100 (0 no effect, 100 complete control)
Method in brief: as §2

giant foxtail [8] = assay: Test A pre-/postemergence herbicide test; assay type: in vivo, Setaria faberi
Method in brief: as §4

barnyardgrass [9] = assay: Test A pre-/postemergence herbicide test; assay type: in vivo, Echinochloa crus-galli
Method in brief: as §4

morningglory [10] = assay: Test B pre-/postemergence herbicide test; assay type: in vivo, Ipomoea coccinea
Method in brief: as §1

blackgrass = assay: Test B postemergence herbicide test; assay type: in vivo, Alopecurus myosuroides
Method in brief: as §2

large crabgrass [11] = assay: Test A pre-/postemergence herbicide test; assay type: in vivo, Digitaria sanguinalis
Method in brief: as §4

velvetleaf [12] = assay: Test B pre-/postemergence herbicide test; assay type: in vivo, Abutilon theophrasti
Method in brief: as §5

[13] = Postemergence, 125 g ai/ha, scale 0 (no effect) to 100 (complete control)
[14] = Postemergence, 500 g ai/ha, visual rating after 13 to 15 days, scale 0 (no effect) to 100 (complete control)
[15] = Preemergence, 500 g ai/ha, scale 0 to 100
[16] = 1000 g ai/ha, visual rating, 13 to 15 days
[17] = Postemergence, 250 g ai/ha, 0 to 100 scale, 0 no effect, 100 complete control
[18] = Postemergence, 1000 g ai/ha, 0 to 100 scale, 0 no effect, 100 complete control
[19] = Preemergence, 1000 g ai/ha, visual rating, 0 to 100 scale (0 no effect, 100 complete control)
[20] = preemergence, 250 g ai/ha, visual injury, 0 to 100 scale (0 no effect, 100 complete control)
[21] = preemergence, 125 g ai/ha, 0 to 100 scale, 0 is no effect, 100 is complete control
[22] = Postemergence, 500 g ai/ha, scale 0 (no effect) to 100 (complete control)
[23] = postemergence, 125 g ai/ha, scale 0 to 100

For CCN(CC)C(=O)c1cccc(NC(=O)c2cc(C(C)(C)C)nn2CC(F)(F)F)c1 [Compound 32], which “Barnyardgrass plant response rating” value (barnyardgrass [1]; [13]) is on record?
The value was 0.

And the “Plant response rating, Barnyardgrass” value (barnyardgrass [1]; [14])?
The value was 10.

What about the “Barnyardgrass plant response rating” value (barnyardgrass [1]; [15]) of the same compound?
The value was 60.

And the “Ducksalad plant response rating” value (ducksalad; [16])?
Its value is 0.

What about the “Oat, Wild plant response rating” value (wild oat; [13]) of the same compound?
The value was 10.

What about the “Plant response rating, Oat, Wild” value (wild oat; [14]) of the same compound?
The value was 20.

And the “Rice plant response rating” value (rice; [16])?
Its value is 0.

And the “Sedge, Umbrella plant response rating” value [2, 16]?
Its value is 20.

What about the “Pigweed plant response rating” value (redroot pigweed; [17]) of the same compound?
The value was 0.

And the “Plant response rating, Pigweed” value (redroot pigweed; [18])?
The value was 0.

And the “Pigweed plant response rating” value (redroot pigweed; [19])?
The value was 0.

And the “Pigweed plant response rating” value (redroot pigweed; [20])?
The value was 0.

And the “Corn plant response rating” value (corn; [13])?
The value was 10.

And the “Plant response rating, Corn” value (corn; [14])?
Its value is 10.

What about the “Corn plant response rating” value (corn; [15]) of the same compound?
The value was 0.

And the “Plant response rating, Pigweed” value (pigweed; [14])?
Its value is 50.

What about the “Pigweed plant response rating” value (pigweed; [15]) of the same compound?
Its value is 70.

What about the “Plant response rating, Pigweed” value (pigweed; [21]) of the same compound?
Its value is 0.

And the “Lambsquarters plant response rating” value (lambsquarters; [13])?
Its value is 70.

And the “Plant response rating, Lambsquarters” value (lambsquarters; [14])?
The value was 90.

And the “Lambsquarters plant response rating” value (lambsquarters; [15])?
Its value is 100.

And the “Plant response rating, Lambsquarters” value (lambsquarters; [21])?
Its value is 100.

What about the “Foxtail, Giant plant response rating” value (giant foxtail [3]; [13]) of the same compound?
The value was 0.

What about the “Plant response rating, Foxtail, Giant” value (giant foxtail [3]; [14]) of the same compound?
Its value is 10.

And the “Foxtail, Giant plant response rating” value (giant foxtail [3]; [15])?
Its value is 10.

And the “Plant response rating, Foxtail, Giant” value (giant foxtail [3]; [21])?
The value was 0.

What about the “Morningglory plant response rating” value (morningglory [4]; [17]) of the same compound?
Its value is 0.

And the “Plant response rating, Morningglory” value (morningglory [4]; [18])?
Its value is 0.

And the “Morningglory plant response rating” value (morningglory [4]; [19])?
The value was 0.

And the “Morningglory plant response rating” value (morningglory [4]; [20])?
Its value is 0.

And the “Crabgrass, Large plant response rating” value (large crabgrass [5]; [13])?
Its value is 0.

And the “Plant response rating, Crabgrass, Large” value (large crabgrass [5]; [14])?
The value was 10.

What about the “Crabgrass, Large plant response rating” value (large crabgrass [5]; [15]) of the same compound?
Its value is 60.

What about the “Velvetleaf plant response rating” value (velvetleaf [6]; [17]) of the same compound?
Its value is 0.

And the “Plant response rating, Velvetleaf” value (velvetleaf [6]; [18])?
Its value is 0.

What about the “Velvetleaf plant response rating” value (velvetleaf [6]; [19]) of the same compound?
Its value is 0.

What about the “Velvetleaf plant response rating” value (velvetleaf [6]; [20]) of the same compound?
The value was 0.

What about the “Cocklebur plant response rating” value (cocklebur; [13]) of the same compound?
Its value is 10.

And the “Plant response rating, Cocklebur” value (cocklebur; [14])?
Its value is 20.

And the “Cocklebur plant response rating” value (cocklebur; [15])?
The value was 0.

What about the “Plant response rating, Wheat” value (wheat; [14]) of the same compound?
Its value is 10.

What about the “Plant response rating, Surinam Grass” value (Surinam grass; [14]) of the same compound?
The value was 10.

And the “Surinam Grass plant response rating” value (Surinam grass; [15])?
The value was 30.

And the “Plant response rating, Surinam Grass” value (Surinam grass; [21])?
Its value is 0.

And the “Barnyardgrass plant response rating” value (barnyardgrass [7]; [16])?
Its value is 0.

What about the “Foxtail, Giant plant response rating” value (giant foxtail [8]; [17]) of the same compound?
Its value is 0.

What about the “Plant response rating, Foxtail, Giant” value (giant foxtail [8]; [18]) of the same compound?
Its value is 0.

What about the “Foxtail, Giant plant response rating” value (giant foxtail [8]; [19]) of the same compound?
The value was 0.

What about the “Foxtail, Giant plant response rating” value (giant foxtail [8]; [20]) of the same compound?
Its value is 0.

And the “Barnyardgrass plant response rating” value (barnyardgrass [9]; [17])?
The value was 0.

What about the “Plant response rating, Barnyardgrass” value (barnyardgrass [9]; [18]) of the same compound?
Its value is 0.

And the “Barnyardgrass plant response rating” value (barnyardgrass [9]; [19])?
Its value is 0.

And the “Barnyardgrass plant response rating” value (barnyardgrass [9]; [20])?
The value was 0.

And the “Morningglory plant response rating” value (morningglory [10]; [13])?
The value was 0.

And the “Plant response rating, Morningglory” value (morningglory [10]; [14])?
The value was 0.

What about the “Morningglory plant response rating” value (morningglory [10]; [15]) of the same compound?
Its value is 60.

And the “Plant response rating, Morningglory” value (morningglory [10]; [21])?
The value was 50.

And the “Blackgrass plant response rating” value (blackgrass; [13])?
Its value is 0.

What about the “Plant response rating, Blackgrass” value (blackgrass; [14]) of the same compound?
Its value is 0.

What about the “Crabgrass, Large plant response rating” value (large crabgrass [11]; [17]) of the same compound?
Its value is 0.

And the “Plant response rating, Crabgrass, Large” value (large crabgrass [11]; [18])?
The value was 0.

What about the “Crabgrass, Large plant response rating” value (large crabgrass [11]; [19]) of the same compound?
Its value is 0.

And the “Crabgrass, Large plant response rating” value (large crabgrass [11]; [20])?
The value was 0.

What about the “Plant response rating, Velvetleaf” value (velvetleaf [12]; [14]) of the same compound?
The value was 30.

What about the “Velvetleaf plant response rating” value (velvetleaf [12]; [15]) of the same compound?
Its value is 70.

And the “Plant response rating, Velvetleaf” value (velvetleaf [12]; [21])?
Its value is 0.

Which results are given for C=CCN(CC=C)C(=O)c1cccc(NC(=O)c2nn(C(C)(C)C)nc2C)n1 [Compound 439]?
Barnyardgrass plant response rating (barnyardgrass [1]; [13]): 0; Barnyardgrass plant response rating (barnyardgrass [1]; [22]): 0; Ducksalad plant response rating (ducksalad; 125 g ai/ha): 0; Oat, Wild plant response rating (wild oat; [22]): 10; Oat, Wild plant response rating (wild oat; [23]): 0; Rice plant response rating (rice; 125 g ai/ha): 0; Sedge, Umbrella plant response rating ([2]; 125 g ai/ha): 0; Corn plant response rating (corn; [22]): 0; Corn plant response rating (corn; [23]): 0; Pigweed plant response rating (pigweed; [22]): 10; Pigweed plant response rating (pigweed; [23]): 0; Lambsquarters plant response rating (lambsquarters; [22]): 0; Lambsquarters plant response rating (lambsquarters; [23]): 0; Foxtail, Giant plant response rating (giant foxtail [3]; [22]): 0; Foxtail, Giant plant response rating (giant foxtail [3]; [23]): 0; Crabgrass, Large plant response rating (large crabgrass [5]; [22]): 0; Crabgrass, Large plant response rating (large crabgrass [5]; [23]): 0; Cocklebur plant response rating (cocklebur; [22]): 0; Cocklebur plant response rating (cocklebur; [23]): 0; Wheat plant response rating (wheat; 500 g ai/ha, scale 0 to 100, 0 no effect, 100 complete control, preemergence): 0; Wheat plant response rating (wheat; [22]): 10; Wheat plant response rating (wheat; [23]): 0; Surinam Grass plant response rating (Surinam grass; [22]): 0; Surinam Grass plant response rating (Surinam grass; [23]): 0; Barnyardgrass plant response rating (barnyardgrass [7]; 125 g ai/ha): 0; Morningglory plant response rating (morningglory [10]; [22]): 30; Morningglory plant response rating (morningglory [10]; [23]): 0; Blackgrass plant response rating (blackgrass; [22]): 10; Blackgrass plant response rating (blackgrass; [23]): 0; Velvetleaf plant response rating (velvetleaf [12]; [22]): 0; Velvetleaf plant response rating (velvetleaf [12]; [23]): 0

Reference: US20060069132A1, “Azolecarboxamide herbicides” (priority 2004, published 2006)
